# Measurements: US9834571B2, “Compounds for inhibiting cell proliferation in EGFR-driven cancers” (ARIAD Pharmaceuticals, Inc., priority 2012, dated 2017)
# pIC50: −log10 of the molar value. Like-named read-outs stand apart in the source and are kept apart here.
# How the values were obtained:
# [1] = target: human EGFR (native sequence) (Homo sapiens, UniProt P00533); assay: Kinase inhibitory activity against human EGFR (native sequence); type: biochemical; conditions: 10 μM ATP, read-out: IC50 for kinase inhibition, EGFR
# In short: (§1)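 Kinase inhibition was measured against native human EGFR and the L858R and L858R/T790M mutants. Compounds were run as 10-point curves in singlicate from a 3 μM top concentration, with 10 μM ATP.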
# EGFR L858R = EGFR L858R (Homo sapiens, UniProt P00533, L858R); assay: Kinase inhibitory activity against EGFR bearing the L858R mutation; type: biochemical; conditions: 10 μM ATP, read-out: IC50 for kinase inhibition, EGFR L858R
# In short: as §1
# EGFR L858R/T790M = EGFR L858R/T790M (Homo sapiens, UniProt P00533, L858R/T790M); assay: Kinase inhibitory activity against EGFR bearing the L858R/T790M double mutation; type: biochemical; conditions: 10 μM ATP, read-out: IC50 for kinase inhibition, EGFR L858R T790M
# In short: as §1
# [2] = target: T1, BaF3 cells expressing the target EGFR mutations (Homo sapiens, UniProt P00533, T790M, cells depend on it, form not given); assay: Antiproliferative activity (MTT) against BaF3 cells expressing the target EGFR mutations; type: cell-based; conditions: BAF3 EGFR DEL T790M PURO POOL cells, read-out: IC50, BAF3 EGFR DEL T790M PURO POOL
# T1 construct: IC50, BAF3 EGFR DEL T790M PURO POOL; other: BAF3 EGFR DEL T790M PURO POOL cells, MTT; other: BAF3 EGFR DEL T790M PURO POOL cells; MTT
# In short: (§2)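 Viability by MTT colorimetry. Cells: BaF3 transfected with mutant EGFR, plus a wildtype-EGFR BaF3 counter-screen.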
# [3] = target: T2, BaF3 cells expressing the target EGFR mutations (Homo sapiens, UniProt P00533, T790M/L858R, cells depend on it); assay: as above; type: cell-based; conditions: BAF3 EGFR L858R-T790M PURO POOL cells, read-out: IC50, BAF3 EGFR L858R-T790M PURO POOL
# T2 construct: IC50, BAF3 EGFR L858R-T790M PURO POOL; other: BAF3 EGFR L858R-T790M PURO POOL cells, MTT; IC50, BAF3 EGFR L858R-T790M PURO POOL; other: BAF3 EGFR L858R-T790M PURO POOL cells; MTT
# In short: as §2
# [4] = system: BaF3 cells expressing wildtype EGFR; assay: Antiproliferative activity (MTT) against control BaF3 cells expressing wildtype EGFR; type: cell-based; conditions: Mus musculus
# In short: as §2
# [5] = 10 pt curves, 3 μM top concentration
# [6] = EGFR L858R/T790M double mutation
# Sequence of EGFR L858R (P00533 25-1210 L858R): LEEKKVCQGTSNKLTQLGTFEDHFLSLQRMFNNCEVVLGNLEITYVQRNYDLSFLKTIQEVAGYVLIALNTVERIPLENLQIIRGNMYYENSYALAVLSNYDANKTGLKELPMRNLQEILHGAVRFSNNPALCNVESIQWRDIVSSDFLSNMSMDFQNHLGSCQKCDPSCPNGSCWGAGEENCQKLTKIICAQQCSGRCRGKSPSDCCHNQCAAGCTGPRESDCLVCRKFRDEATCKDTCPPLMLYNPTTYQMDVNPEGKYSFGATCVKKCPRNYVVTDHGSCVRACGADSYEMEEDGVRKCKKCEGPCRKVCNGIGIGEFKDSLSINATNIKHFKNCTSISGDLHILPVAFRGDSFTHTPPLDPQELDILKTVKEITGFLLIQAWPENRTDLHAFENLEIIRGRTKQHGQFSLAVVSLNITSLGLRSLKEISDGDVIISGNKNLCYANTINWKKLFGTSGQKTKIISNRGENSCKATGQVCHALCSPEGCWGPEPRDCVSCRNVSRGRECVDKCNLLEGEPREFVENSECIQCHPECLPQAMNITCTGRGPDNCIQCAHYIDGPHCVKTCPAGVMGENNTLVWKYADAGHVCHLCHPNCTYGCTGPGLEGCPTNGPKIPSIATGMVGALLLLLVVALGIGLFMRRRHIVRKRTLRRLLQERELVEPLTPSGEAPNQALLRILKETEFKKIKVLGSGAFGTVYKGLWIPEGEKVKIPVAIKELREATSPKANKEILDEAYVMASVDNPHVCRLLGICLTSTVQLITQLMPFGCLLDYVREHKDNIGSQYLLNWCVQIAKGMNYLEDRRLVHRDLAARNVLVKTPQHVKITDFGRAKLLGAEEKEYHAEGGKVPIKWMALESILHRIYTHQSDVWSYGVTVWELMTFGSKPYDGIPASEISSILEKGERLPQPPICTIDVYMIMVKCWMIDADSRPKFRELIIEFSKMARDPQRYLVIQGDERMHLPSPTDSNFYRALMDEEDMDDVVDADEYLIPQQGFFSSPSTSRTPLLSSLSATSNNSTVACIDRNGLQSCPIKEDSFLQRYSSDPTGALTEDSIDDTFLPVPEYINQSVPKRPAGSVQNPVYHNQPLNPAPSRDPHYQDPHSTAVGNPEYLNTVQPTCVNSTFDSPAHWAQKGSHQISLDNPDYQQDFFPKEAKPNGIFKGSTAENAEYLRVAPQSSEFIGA
# Sequence of EGFR L858R/T790M (P00533 25-1210 T790M/L858R): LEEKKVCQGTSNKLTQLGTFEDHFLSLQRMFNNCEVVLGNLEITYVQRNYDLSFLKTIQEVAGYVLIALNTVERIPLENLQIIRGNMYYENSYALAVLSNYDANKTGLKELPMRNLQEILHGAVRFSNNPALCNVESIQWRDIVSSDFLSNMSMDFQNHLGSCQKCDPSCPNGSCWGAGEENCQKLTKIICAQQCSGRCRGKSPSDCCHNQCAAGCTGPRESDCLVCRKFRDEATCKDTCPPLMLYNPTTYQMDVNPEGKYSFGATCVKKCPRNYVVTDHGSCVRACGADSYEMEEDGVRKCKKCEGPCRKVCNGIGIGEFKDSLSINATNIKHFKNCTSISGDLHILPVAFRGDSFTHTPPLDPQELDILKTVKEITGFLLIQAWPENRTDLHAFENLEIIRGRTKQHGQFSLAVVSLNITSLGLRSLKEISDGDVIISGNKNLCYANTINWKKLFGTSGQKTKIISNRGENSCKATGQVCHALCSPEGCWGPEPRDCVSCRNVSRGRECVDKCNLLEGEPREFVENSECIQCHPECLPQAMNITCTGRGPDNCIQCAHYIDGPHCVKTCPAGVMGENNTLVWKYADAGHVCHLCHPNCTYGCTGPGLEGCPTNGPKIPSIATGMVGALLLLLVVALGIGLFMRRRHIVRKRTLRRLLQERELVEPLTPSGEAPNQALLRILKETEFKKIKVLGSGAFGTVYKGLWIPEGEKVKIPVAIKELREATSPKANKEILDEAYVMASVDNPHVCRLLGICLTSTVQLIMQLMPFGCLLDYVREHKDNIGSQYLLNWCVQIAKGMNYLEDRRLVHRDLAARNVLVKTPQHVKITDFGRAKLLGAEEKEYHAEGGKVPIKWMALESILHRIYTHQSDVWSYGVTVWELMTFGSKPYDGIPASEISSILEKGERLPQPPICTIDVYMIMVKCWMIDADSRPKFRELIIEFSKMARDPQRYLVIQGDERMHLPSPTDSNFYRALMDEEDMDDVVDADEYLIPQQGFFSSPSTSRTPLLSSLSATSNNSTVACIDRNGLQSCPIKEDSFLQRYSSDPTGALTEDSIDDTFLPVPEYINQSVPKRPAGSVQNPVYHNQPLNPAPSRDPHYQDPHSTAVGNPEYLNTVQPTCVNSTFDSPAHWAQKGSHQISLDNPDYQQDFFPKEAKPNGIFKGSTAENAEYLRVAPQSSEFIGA
# Sequence of human EGFR (native sequence) (P00533 25-1210): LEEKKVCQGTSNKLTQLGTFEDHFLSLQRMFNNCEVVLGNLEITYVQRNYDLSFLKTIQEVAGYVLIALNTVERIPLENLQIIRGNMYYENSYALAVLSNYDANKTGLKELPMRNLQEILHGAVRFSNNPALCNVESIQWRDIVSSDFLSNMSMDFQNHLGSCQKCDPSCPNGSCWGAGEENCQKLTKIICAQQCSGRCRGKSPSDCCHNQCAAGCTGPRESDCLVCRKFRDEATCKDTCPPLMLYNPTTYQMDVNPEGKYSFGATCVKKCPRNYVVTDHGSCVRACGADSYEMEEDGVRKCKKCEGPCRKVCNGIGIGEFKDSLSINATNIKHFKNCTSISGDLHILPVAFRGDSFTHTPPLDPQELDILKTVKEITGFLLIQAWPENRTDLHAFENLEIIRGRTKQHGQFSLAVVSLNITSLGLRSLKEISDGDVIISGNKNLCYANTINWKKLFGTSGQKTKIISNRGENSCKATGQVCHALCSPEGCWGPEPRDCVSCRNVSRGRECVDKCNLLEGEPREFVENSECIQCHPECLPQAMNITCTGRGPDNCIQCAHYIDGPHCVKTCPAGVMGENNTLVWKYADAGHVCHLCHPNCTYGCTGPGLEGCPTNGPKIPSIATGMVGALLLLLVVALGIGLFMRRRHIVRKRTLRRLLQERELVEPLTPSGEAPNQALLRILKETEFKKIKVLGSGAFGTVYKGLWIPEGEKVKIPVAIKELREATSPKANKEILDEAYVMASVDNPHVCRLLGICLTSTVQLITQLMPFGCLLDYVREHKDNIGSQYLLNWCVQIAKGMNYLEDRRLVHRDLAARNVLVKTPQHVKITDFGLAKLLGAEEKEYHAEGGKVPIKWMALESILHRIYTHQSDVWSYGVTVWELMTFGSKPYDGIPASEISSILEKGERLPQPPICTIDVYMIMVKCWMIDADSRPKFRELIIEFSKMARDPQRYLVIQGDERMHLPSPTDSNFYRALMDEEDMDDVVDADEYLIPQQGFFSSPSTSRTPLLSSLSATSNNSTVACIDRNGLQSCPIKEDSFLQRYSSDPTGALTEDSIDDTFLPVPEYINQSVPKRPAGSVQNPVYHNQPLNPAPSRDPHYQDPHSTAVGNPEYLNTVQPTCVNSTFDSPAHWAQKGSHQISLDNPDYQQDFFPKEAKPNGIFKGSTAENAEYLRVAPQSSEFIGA
# T2 sequence (P00533 whole entry T790M/L858R): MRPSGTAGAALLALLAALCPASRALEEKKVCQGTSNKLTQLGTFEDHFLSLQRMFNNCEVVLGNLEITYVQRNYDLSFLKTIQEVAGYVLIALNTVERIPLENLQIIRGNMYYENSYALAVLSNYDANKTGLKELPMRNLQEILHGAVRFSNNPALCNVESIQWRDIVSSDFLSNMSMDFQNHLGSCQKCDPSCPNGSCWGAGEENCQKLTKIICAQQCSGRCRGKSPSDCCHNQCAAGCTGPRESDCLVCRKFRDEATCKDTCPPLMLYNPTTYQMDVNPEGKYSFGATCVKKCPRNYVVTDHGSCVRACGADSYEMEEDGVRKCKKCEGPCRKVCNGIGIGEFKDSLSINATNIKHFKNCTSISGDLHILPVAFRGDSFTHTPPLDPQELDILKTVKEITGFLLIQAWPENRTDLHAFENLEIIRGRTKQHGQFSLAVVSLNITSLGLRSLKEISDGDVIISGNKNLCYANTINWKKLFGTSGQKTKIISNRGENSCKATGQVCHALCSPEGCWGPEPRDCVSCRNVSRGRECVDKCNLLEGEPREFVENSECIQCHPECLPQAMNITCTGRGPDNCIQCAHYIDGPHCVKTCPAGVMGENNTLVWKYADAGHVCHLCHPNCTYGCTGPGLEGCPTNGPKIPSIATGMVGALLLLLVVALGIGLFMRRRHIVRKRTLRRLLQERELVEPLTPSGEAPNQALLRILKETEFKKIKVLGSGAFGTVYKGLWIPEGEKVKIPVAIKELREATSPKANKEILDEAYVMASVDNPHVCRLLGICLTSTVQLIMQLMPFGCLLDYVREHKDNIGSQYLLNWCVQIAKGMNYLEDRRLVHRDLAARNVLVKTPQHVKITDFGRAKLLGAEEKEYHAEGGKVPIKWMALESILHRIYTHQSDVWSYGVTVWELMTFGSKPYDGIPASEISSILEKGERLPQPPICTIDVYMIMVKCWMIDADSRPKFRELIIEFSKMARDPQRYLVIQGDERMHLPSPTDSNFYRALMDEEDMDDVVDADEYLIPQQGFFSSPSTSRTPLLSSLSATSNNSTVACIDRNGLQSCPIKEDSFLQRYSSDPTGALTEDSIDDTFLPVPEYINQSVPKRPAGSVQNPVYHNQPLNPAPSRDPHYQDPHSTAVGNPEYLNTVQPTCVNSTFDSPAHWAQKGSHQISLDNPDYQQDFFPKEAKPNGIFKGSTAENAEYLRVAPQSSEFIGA
SMILES,"pIC50 [1, 5]",pIC50 (EGFR L858R; [5]),pIC50 (EGFR L858R/T790M; [5]),GI50 [2],GI50 [3],pIC50 ([1]; human EGFR native sequence),pIC50 (EGFR L858R; EGFR L858R),pIC50 (EGFR L858R/T790M; [6]),pIC50 ([4]; BAF3 parental cells),pIC50 ([4]; BAF3 PARENTAL cells (control))
"C=CC(=O)Nc1cc(Nc2ncc(Cl)c(Nc3ccccc3P(C)(C)=O)n2)c(OC)cc1C#CCNC [Example 160, N-(5-((5-chloro-4-((2-(dimethylphosphoryl)phenyl)amino)pyrimidin-2-yl)amino)-4-methoxy-2-(3-(methylamino)prop-1-yn-1-yl)phenyl)acrylamide]",> 7.30,> 7.30,> 7.30,< 50 nM,< 50 nM,–,–,–,≤ 6.60,–
"COc1ccc(NC(=O)/C=C\C(=O)N(C)C)cc1Nc1ncc(Cl)c(Nc2ccccc2P(C)(C)=O)n1 [Example 62, N1-(3-((5-chloro-4-((2-(dimethylphosphoryl)phenyl)amino)pyrimidin-2-yl)amino)-4-methoxyphenyl)-N4,N4-dimethylmaleamide]",–,–,–,≥ 250 nM,≥ 250 nM,≤ 6.60,≤ 6.60,≤ 6.60,–,≤ 6.60
"CC#CC(=O)Nc1cc(Nc2ncc(Cl)c(Nc3ccccc3P(C)(C)=O)n2)c(OC)cc1N1CCC(N(C)C)C1 (stereo not drawn) [Example 112, N-(5-((5-chloro-4-((2-(dimethylphosphoryl)phenyl)amino)pyrimidin-2-yl)amino)-2-(3-(dimethylamino)pyrrolidin-1-yl)-4-methoxyphenyl)but-2-ynamide]",> 7.30,> 7.30,> 7.30,< 50 nM,50 to 100 nM,–,–,–,≤ 6.60,–
"C=CC(=O)Nc1cc(Nc2ncc(C3CC3)c(Nc3ccccc3P(C)(C)=O)n2)c(OC)cc1N(C)CCN(CC)CC [Example 120, N-(5-((5-cyclopropyl-4-((2-(dimethylphosphoryl)phenyl)amino)pyrimidin-2-yl)amino)-2-((2-(diethylamino)ethyl)(methyl)amino)-4-methoxyphenyl)acrylamide]",> 7.30,> 7.30,> 7.30,< 50 nM,< 50 nM,–,–,–,≤ 6.60,–
"COc1cc(N2CCOCC2)c(NC(=O)C#CCCN2CCCCC2)cc1Nc1ncc(Cl)c(Nc2ccccc2P(C)(C)=O)n1 [Example 101, N-(5-((5-chloro-4-((2-(dimethylphosphoryl)phenyl)amino)pyrimidin-2-yl)amino)-4-methoxy-2-morpholinophenyl)-5-(piperidin-1-yl)pent-2-ynamide]",–,–,–,< 50 nM,< 50 nM,> 7.30,> 7.30,> 7.30,–,≤ 6.60
"C=CC(=O)Nc1cc(Nc2ncc(Cl)c(Nc3ccccc3P(C)(C)=O)n2)c(OC)cc1C#CCN1CCCCCC1 [Example 165, N-(2-(3-(azepan-1-yl)prop-1-yn-1-yl)-5-((5-chloro-4-((2-(dimethylphosphoryl)phenyl)amino)pyrimidin-2-yl)amino)-4-methoxyphenyl)acrylamide]",> 7.30,> 7.30,> 7.30,< 50 nM,< 50 nM,–,–,–,≤ 6.60,–
"C=C(F)C(=O)Nc1ccc(OC)c(Nc2ncc(Cl)c(Nc3ccccc3P(C)(C)=O)n2)c1 [Example 77, N-(3-((5-chloro-4-((2-(dimethylphosphoryl)phenyl)amino)pyrimidin-2-yl)amino)-4-methoxyphenyl)-2-fluoroacrylamide]",–,–,–,< 50 nM,50 to 100 nM,≤ 6.60,> 7.30,7.00 to 7.30,–,≤ 6.60
"C=CC(=O)Nc1ccc(OC(F)(F)F)c(Nc2ncc(Cl)c(Nc3ccccc3P(C)(C)=O)n2)c1 [Example 134, N-(3-((5-chloro-4-((2-(dimethylphosphoryl)phenyl)amino)pyrimidin-2-yl)amino)-4-(trifluoromethoxy)phenyl)acrylamide]",> 7.30,> 7.30,> 7.30,< 50 nM,< 50 nM,–,–,–,≤ 6.60,–
"C=CC(=O)Nc1cc(Nc2ncc(Cl)c(Nc3ccccc3P(C)(C)=O)n2)c(OC)cc1N1CCC(N(C)C)CC1 [Example 23, N-(5-((5-chloro-4-((2-(dimethylphosphoryl)phenyl)amino)pyrimidin-2-yl)amino)-2-(4-(dimethylamino)piperidin-1-yl)-4-methoxyphenyl)acrylamide]",–,–,–,< 50 nM,101 to 250 nM,> 7.30,> 7.30,> 7.30,–,≤ 6.60

# Continued, in another order:
"pIC50 [1, 5]",pIC50 (EGFR L858R; [5]),pIC50 (EGFR L858R/T790M; [5]),GI50 [2],GI50 [3],pIC50 ([1]; human EGFR native sequence),pIC50 (EGFR L858R; EGFR L858R),pIC50 (EGFR L858R/T790M; [6]),SMILES,pIC50 ([4]; BAF3 parental cells),pIC50 ([4]; BAF3 PARENTAL cells (control))
> 7.30,> 7.30,> 7.30,< 50 nM,< 50 nM,–,–,–,"C=CC(=O)Nc1cc(Nc2ncc(Cl)c(Nc3ccccc3P(C)(C)=O)n2)c(OC)cc1C#CCN(C(C)C)C(C)C [Example 158, N-(5-((5-chloro-4-((2-(dimethylphosphoryl)phenyl)amino)pyrimidin-2-yl)amino)-2-(3-(diisopropylamino)prop-1-yn-1-yl)-4-methoxyphenyl)acrylamide]",≤ 6.60,–
–,–,–,< 50 nM,< 50 nM,≤ 6.60,> 7.30,> 7.30,"C=CC(=O)Nc1cc(Nc2ncc(Cl)c(Nc3ccccc3P(C)(C)=O)n2)c(OC)cc1C#CCN(CC)CC [Example 96, N-(5-((5-chloro-4-((2-(dimethylphosphoryl)phenyl)amino)pyrimidin-2-yl)amino)-2-(3-(diethylamino)prop-1-yn-1-yl)-4-methoxyphenyl)acrylamide]",–,≤ 6.60
7.00 to 7.30,> 7.30,> 7.30,< 50 nM,< 50 nM,–,–,–,"CC#CC(=O)Nc1cc(Nc2ncc(Cl)c(Nc3ccccc3P(C)(C)=O)n2)c(OC)cc1N1CCC(N2CCN(C)CC2)CC1 [Example 106, N-(5-((5-chloro-4-((2-(dimethylphosphoryl)phenyl)amino)pyrimidin-2-yl)amino)-4-methoxy-2-(4-(4-methylpiperazin-1-yl)piperidin-1-yl)phenyl)but-2-ynamide]",≤ 6.60,–
–,–,–,≥ 250 nM,≥ 250 nM,≤ 6.60,> 7.30,> 7.30,"COc1ccc(NC(=O)/C=C\C(=O)NCCN(C)C)cc1Nc1ncc(Cl)c(Nc2ccccc2P(C)(C)=O)n1 [Example 64, N1-(3-((5-chloro-4-((2-(dimethylphosphoryl)phenyl)amino)pyrimidin-2-yl)amino)-4-methoxyphenyl)-N4-(2-(dimethylamino)ethyl)maleamide]",–,≤ 6.60
–,–,–,< 50 nM,50 to 100 nM,≤ 6.60,6.60 to 7.00,≤ 6.60,"CC#CC(=O)Nc1cc(Nc2ncc(Cl)c(Nc3ccccc3P(C)(C)=O)n2)c(OC)cc1OCC1CCOCC1 [Example 102, N-(5-((5-chloro-4-((2-(dimethylphosphoryl)phenyl)amino)pyrimidin-2-yl)amino)-4-methoxy-2-((tetrahydro-2H-pyran-4-yl)methoxy)phenyl)but-2-ynamide]",–,≤ 6.60
–,–,–,< 50 nM,< 50 nM,> 7.30,> 7.30,> 7.30,"C=CC(=O)Nc1cc(Nc2ncc(Cl)c(Nc3ccccc3P(C)(C)=O)n2)c(OC)cc1OC(COC)CN1CCC1 (stereo not drawn) [Example 15, N-(2-((1-(azetidin-1-yl)-3-methoxypropan-2-yl)oxy)-5-((5-chloro-4-((2-(dimethylphosphoryl)phenyl)amino)pyrimidin-2-yl)amino)-4-methoxyphenyl)acrylamide]",–,≤ 6.60
–,–,–,≥ 250 nM,≥ 250 nM,≤ 6.60,7.00 to 7.30,6.60 to 7.00,"COc1ccc(NC(=O)/C=C/C(=O)N(C)C)cc1Nc1ncc(Cl)c(Nc2ccccc2P(C)(C)=O)n1 [Example 60, N1-(3-((5-chloro-4-((2-(dimethylphosphoryl)phenyl)amino)pyrimidin-2-yl)amino)-4-methoxyphenyl)-N4,N4-dimethylfumaramide]",–,≤ 6.60
–,–,–,≥ 250 nM,≥ 250 nM,≤ 6.60,≤ 6.60,≤ 6.60,"COc1ccc(NC(=O)/C=C/C2(NC(=O)OC(C)(C)C)CC2)cc1Nc1ncc(Cl)c(Nc2ccccc2P(C)(C)=O)n1 [Example 76, (E)-tert-butyl (1-(3-((3-((5-chloro-4-((2-(dimethylphosphoryl)phenyl)amino)pyrimidin-2-yl)amino)-4-methoxyphenyl)amino)-3-oxoprop-1-en-1-yl)cyclopropyl)carbamate]",–,≤ 6.60
